PubChem BioAssay (NCI)
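Cells were grown in 96-well plates and exposed to each compound for 48 hours at five concentrations; endpoints were interpolated linearly between bracketing concentrations, or set to the highest concentration if not reached. Abbreviation: GI50, concentration required for 50% inhibition of growth. Definition used: TGI = concentration required for complete inhibition of growth.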

Experiments:
Experiment in all cases: growth of human tumour cells (NCI), 48 h
HT29 colon = tested on: HT29 colon
HOP-92 NSCLC = tested on: HOP-92 NSCLC
OVCAR-5 ovarian = tested on: OVCAR-5 ovarian
786-0 renal = tested on: 786-0 renal
HCC-2998 colon = tested on: HCC-2998 colon
CCRF-CEM leukemia = tested on: CCRF-CEM leukemia
U251 CNS = tested on: U251 CNS
NCI-H226 lung = tested on: NCI-H226 lung
BT-549 breast = tested on: BT-549 breast
SNB-19 CNS = tested on: SNB-19 CNS

| Compound | TGI (HT29 colon) [µM] | TGI (HOP-92 NSCLC) [µM] | TGI (OVCAR-5 ovarian) [µM] | TGI (786-0 renal) [µM] | TGI (HCC-2998 colon) [µM] | TGI (CCRF-CEM leukemia) [µM] | TGI (U251 CNS) [µM] | TGI (NCI-H226 lung) [µM] | TGI (BT-549 breast) [µM] | TGI (SNB-19 CNS) [µM] | GI50 (HT29 colon) [µM] | GI50 (HOP-92 NSCLC) [µM] | GI50 (OVCAR-5 ovarian) [µM] | GI50 (786-0 renal) [µM] | GI50 (HCC-2998 colon) [µM] | GI50 (CCRF-CEM leukemia) [µM] | GI50 (U251 CNS) [µM] | GI50 (NCI-H226 lung) [µM] | GI50 (BT-549 breast) [µM] | GI50 (SNB-19 CNS) [µM] |
| --- | --- | --- | --- | --- | --- | --- | --- | --- | --- | --- | --- | --- | --- | --- | --- | --- | --- | --- | --- | --- |
| CCN(CC)c1ccc(C2NC(=O)c3ccccc3N2)cc1 (stereo not given) | > 20.8 | 66.5 | > 100 | > 41.2 | 5.79 | 3.38 | > 100 | > 100 | > 100 | > 100 | – | – | – | – | – | – | – | – | – | – |
| Cc1nc(-c2cnc(NC(C)C)n(C)c2=O)ccc1Oc1ccnc(-c2cnn(C)c2)c1 | 68 | 53.1 | > 100 | > 100 | > 100 | > 100 | > 100 | 99.1 | 70 | > 100 | 5.28 | 7.44 | 19.4 | 25.7 | 24 | 12.1 | 15.6 | 14.9 | 12.7 | 25.2 |
| CCN(CC)CCN1C(=O)C2C3C(=O)CC(C)(CC3C)C2C1=O (stereo not given) | > 100 | > 100 | > 100 | > 100 | > 100 | > 100 | > 100 | > 100 | > 100 | > 100 | > 100 | > 100 | > 100 | > 100 | > 100 | > 100 | > 100 | > 100 | > 100 | > 100 |
| O=C1c2ccccc2C(=O)c2c1ccc1c(=O)n(-c3ccccc3C(F)(F)F)nnc21 | > 100 | 5.94 | 6.01 | > 100 | 6.16 | > 100 | 17.9 | 5.87 | 6.8 | 31.2 | 3.43 | 2.08 | 2.19 | 4.09 | 2.45 | 2.03 | 2.66 | 2.38 | 1.81 | 2.68 |
| COc1ccccc1/C=C/C1=C(C)CCC(c2ccccc2OC)C1C (stereo not given) | – | > 100 | > 68.2 | 2.51 | 1.56 | > 100 | 22.5 | 0.627 | 1.73 | > 100 | 0.167 | 0.632 | 0.403 | 0.196 | 0.249 | 0.0684 | 0.132 | 0.223 | 0.27 | 0.226 |
| COc1cccc(C2=C(c3cn(C)c4cc(F)ccc34)C(=O)NC2=O)c1 | > 25 | > 25 | > 25 | > 25 | > 25 | > 25 | > 25 | > 25 | > 25 | > 25 | 8.35 | > 25 | > 25 | > 18.7 | > 25 | 9.63 | > 17.2 | > 18.8 | > 24 | > 25 |
| C/C(=N/O)c1ccc2c(c1)/C(=N/O)c1ccccc1-2 | 40.7 | 60 | 53.5 | 38.5 | 35.9 | 62.6 | 46 | 49.7 | 50.4 | > 100 | 18.2 | 27.8 | 22.8 | 20.5 | 20.3 | 25.4 | 21.2 | 22.2 | 21.4 | 33.8 |
| Clc1ccc2ncc(-c3cccc(NC4CNC4)n3)n2c1 | > 100 | 67.7 | > 100 | > 100 | 68.2 | 72.7 | 48.7 | – | 31.8 | > 100 | 3.21 | 20.5 | 6.45 | 7.96 | 12.9 | 3.62 | 6.85 | – | 10.5 | 24.1 |
| Cc1ccc(-c2nc(N3CCNCC3)c3oc(-c4ccccc4)nc3n2)cc1 | 3.32 | 3.36 | 3.36 | 3.25 | > 100 | 4.79 | 3.24 | – | 31.6 | 3.29 | 1.78 | 1.66 | 1.68 | 1.77 | > 100 | 2.16 | 1.79 | – | 13.8 | 1.85 |
